Laboratory results taken from patent US20230042936A1, “PYRIDO[2,3-d]PYRIMIDIN-7(8H)-ONES AS CDK INHIBITORS” (PROSENESTAR LLC, priority 2020, published 2023).
Like-named read-outs stand apart in the source and are kept apart here.

How the values were obtained:
CDC7/DBF4 = CDC7/DBF4 (Homo sapiens, UniProt O00311); test: Kinase profiling; format: biochemical; settings: 10 semi-logarithmic dilutions from 50 μM, singlicate; read-out: IC50 CDC7/DBF4
CDK1/CycB1 = CDK1/CycB1 (Homo sapiens, UniProt P06493); test: Kinase profiling; format: biochemical
CDK2/CycA2 = CDK2/CycA2 (Homo sapiens, UniProt P24941); test: Kinase profiling; format: biochemical
CDK2/CycE1 = CDK2/CycE1 (Homo sapiens, UniProt P24941); test: Kinase profiling; format: biochemical
CDK3/CycC = CDK3/CycC (Homo sapiens, UniProt Q00526); test: Kinase profiling; format: biochemical; settings: 10 semi-logarithmic dilutions from 50 μM, singlicate
CDK7/CycH/MAT1 = CDK7/CycH/MAT1 (Homo sapiens, UniProt P50613); test: Kinase profiling; format: biochemical; settings: 10 semi-logarithmic dilutions from 50 μM, singlicate
CDK8/CycC = CDK8/CycC (Homo sapiens, UniProt P49336); test: Kinase profiling; format: biochemical; settings: 10 semi-logarithmic dilutions from 50 μM, singlicate
CDK9/CycK = CDK9/CycK (Homo sapiens, UniProt P50750); test: Kinase profiling; format: biochemical; settings: 10 semi-logarithmic dilutions from 50 μM, singlicate
DYRK1A = DYRK1A (Homo sapiens, UniProt Q13627); test: Kinase profiling; format: biochemical; settings: 10 semi-logarithmic dilutions from 50 μM, singlicate
DYRK2 = target: T1, DYRK2 (Homo sapiens, UniProt Q92630); test: Kinase profiling; format: biochemical; settings: 10 semi-logarithmic dilutions from 50 μM, singlicate; read-out: IC50 DYRK2
T1 sequence (Q92630 1-601): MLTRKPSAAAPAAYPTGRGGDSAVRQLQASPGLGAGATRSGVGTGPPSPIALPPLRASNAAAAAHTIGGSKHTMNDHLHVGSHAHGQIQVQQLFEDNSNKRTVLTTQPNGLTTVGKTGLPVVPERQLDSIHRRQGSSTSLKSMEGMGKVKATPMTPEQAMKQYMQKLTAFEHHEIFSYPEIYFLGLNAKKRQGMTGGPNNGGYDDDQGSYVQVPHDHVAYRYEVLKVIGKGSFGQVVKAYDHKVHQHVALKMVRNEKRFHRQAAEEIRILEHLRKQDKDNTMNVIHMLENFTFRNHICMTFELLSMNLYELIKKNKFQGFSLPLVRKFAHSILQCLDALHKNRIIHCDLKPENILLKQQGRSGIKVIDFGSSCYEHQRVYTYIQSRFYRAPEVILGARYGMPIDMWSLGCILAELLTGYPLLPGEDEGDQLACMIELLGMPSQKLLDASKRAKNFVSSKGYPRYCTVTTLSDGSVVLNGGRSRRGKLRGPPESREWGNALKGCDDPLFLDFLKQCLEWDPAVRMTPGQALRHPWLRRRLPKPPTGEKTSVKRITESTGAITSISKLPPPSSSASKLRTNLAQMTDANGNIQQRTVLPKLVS

ERK1 = ERK1 (Homo sapiens, UniProt P27361); test: Kinase profiling; format: biochemical; settings: 10 semi-logarithmic dilutions from 50 μM, singlicate
HIPK2 = HIPK2 (Homo sapiens, UniProt Q9H2X6); test: Kinase profiling; format: biochemical; settings: 10 semi-logarithmic dilutions from 50 μM, singlicate; read-out: IC50 HIPK2
PIM1 = PIM1 (Homo sapiens, UniProt P11309); test: Kinase profiling; format: biochemical; settings: 10 semi-logarithmic dilutions from 50 μM, singlicate
[1] = tested on: MCF10 non-transformed mammary epithelial cell line; test: Proliferation assay: determination of GI50; format: cell-based, human; settings: Table 3, 48 h, n = 2 independent experiments
Description: (§1) The following human tumor cell lines, all Retinoblastoma (Rb)-proficient, were used in this study: MDA-MB231 (breast cancer), MDA-MB453 (breast cancer), U87MG (glioblastoma) and H460 (lung cancer). MDA-MB468 (breast cancer) and SW1783 (glioblastoma) Rb-deficient cells were also included in the study, as well as the MCF10A non-transformed mammary epithelial cell line. Tumor cell lines were maintained in DMEM or RPMI-1640 medium, depending on the cell line, supplemented with 10% FBS. MCF10A cells were grown in complete mammary epithelial growth medium (MEGM, Lonza). Cell lines were authenticated by short tandem repeat (STR) loci profiling with the GenePrint® 10 System (Promega).
(§2) All human cancer cell lines (Table 2) were obtained from the American Type Culture Collection, and were maintained in DMEM (Hyclone) or RPMI-1640 medium (Sigma) supplemented with 10% fetal bovine serum (Sigma). Non-transformed MCF10 cell line was maintained in MEGM Mammary Epithelial Cell Growth Medium (Lonza). Immortalized mouse embryonic fibroblasts (MEFs) were maintained in DMEM with 10% fetal bovine serum.
(§3) 48 h later cells were fixed with PFA 4% for 15 minutes, stained with 10 μg/ml Hoechst 33342 (Molecular Probes, Thermo Fisher) for 30 minutes and washed twice with PBS. Cells were imaged in a high content screening system (Opera Phoenix™, Perkin Elmer) using a 20× dry objective (30 fields/well). Cell counts were determined by the Opera software (Perkin Elmer) and data were further processed with SPSS software. GI50 was calculated by estimating the absolute IC50 using dose-response inhibition tool in Prism6 (Graphpad Software Inc.).

[2] = tested on: U87MG glioblastoma cell line; test: Proliferation assay: determination of GI50; format: cell-based, human; settings: Table 3, 48 h, n = 3 independent experiments, read-out: GI50 U87MG
Description: as §1, §2, §3

[3] = tested on: panel of 27 kinases (CDK family members); test: Kinase profiling, results in words; format: biochemical; settings: from Table 1
[4] = tested on: MDA-MB-231 human breast cancer cells; test: Cell cycle analysis (DNA content, flow cytometry); format: cell-based; settings: GI50 concentration; FIG. 1
Description: FIG. 1 depicts DNA content profiles of MDA-MB-231 human breast cancer cells treated with subject compounds or commercial CDK inhibitors, showing the percentage of cells at the different cell cycle phases after 48 hours of the treatments indicated. (n=6 technical replicates).
Cells were collected by trypsinization, washed with PBS and fixed with cold 70% ethanol. Cells were treated with 250 μg/ml RNase (Qiagen) for 30 minutes at 37° C. and stained with 10 μg/ml Propidium Iodide (Sigma). Cell cycle was analyzed by flow cytometry using a LSR Fortessa Analyzer. Cell cycle profiles were generated and analyzed with FlowJo software.
Cells were collected by tripsinization at several times after treatment with the indicated compounds and, then, fixed with cold 70% Ethanol. DNA content was determined by staining with propidium iodide (10 μg/ml, Sigma Aldrich). Data acquisition was performed with a LSR Fortessa analyzer (BD Biosciences) and analysed using FlowJo software.

[5] = 10 semi-logarithmic dilutions from 50 μM, singlicate

Chain of ERK1 (P27361 whole entry): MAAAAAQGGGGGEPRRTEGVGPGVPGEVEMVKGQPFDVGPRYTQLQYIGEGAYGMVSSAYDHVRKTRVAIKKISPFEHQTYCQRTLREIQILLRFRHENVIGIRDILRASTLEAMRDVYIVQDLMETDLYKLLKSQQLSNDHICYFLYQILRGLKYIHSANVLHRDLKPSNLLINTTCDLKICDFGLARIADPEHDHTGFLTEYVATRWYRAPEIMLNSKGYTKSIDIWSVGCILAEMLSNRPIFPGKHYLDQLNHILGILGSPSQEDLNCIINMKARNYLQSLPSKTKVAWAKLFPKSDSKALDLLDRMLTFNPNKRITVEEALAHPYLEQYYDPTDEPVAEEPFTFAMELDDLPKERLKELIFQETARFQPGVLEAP
Chain of CDK7/CycH/MAT1 (P50613 whole entry): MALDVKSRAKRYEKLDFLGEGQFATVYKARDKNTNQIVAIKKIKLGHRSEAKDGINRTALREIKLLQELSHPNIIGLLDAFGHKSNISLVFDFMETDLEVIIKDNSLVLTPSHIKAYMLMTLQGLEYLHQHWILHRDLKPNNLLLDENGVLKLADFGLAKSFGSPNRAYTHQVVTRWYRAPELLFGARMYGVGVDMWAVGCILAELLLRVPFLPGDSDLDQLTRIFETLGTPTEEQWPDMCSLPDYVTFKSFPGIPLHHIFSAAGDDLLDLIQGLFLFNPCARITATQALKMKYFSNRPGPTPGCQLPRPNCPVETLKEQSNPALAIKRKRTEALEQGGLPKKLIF
Chain of CDK7/CycH/MAT1 (P51946 whole entry partner): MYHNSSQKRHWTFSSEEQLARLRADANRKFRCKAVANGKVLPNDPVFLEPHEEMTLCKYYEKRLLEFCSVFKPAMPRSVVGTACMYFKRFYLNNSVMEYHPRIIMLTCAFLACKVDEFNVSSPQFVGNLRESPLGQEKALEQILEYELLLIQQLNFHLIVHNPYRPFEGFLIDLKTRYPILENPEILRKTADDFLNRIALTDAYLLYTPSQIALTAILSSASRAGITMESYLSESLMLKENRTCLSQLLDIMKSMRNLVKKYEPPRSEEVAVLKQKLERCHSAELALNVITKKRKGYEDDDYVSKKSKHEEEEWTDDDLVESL
Chain of CDK7/CycH/MAT1 (P51948 whole entry partner): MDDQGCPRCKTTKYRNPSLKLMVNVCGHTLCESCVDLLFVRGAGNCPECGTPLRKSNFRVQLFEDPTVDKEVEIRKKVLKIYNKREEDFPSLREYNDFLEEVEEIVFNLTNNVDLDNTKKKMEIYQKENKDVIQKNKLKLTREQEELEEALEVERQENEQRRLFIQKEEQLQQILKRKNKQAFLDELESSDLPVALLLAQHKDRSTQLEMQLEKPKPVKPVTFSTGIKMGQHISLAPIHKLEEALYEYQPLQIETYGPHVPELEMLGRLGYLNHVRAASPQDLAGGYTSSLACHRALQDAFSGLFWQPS
Chain of HIPK2 (Q9H2X6 whole entry): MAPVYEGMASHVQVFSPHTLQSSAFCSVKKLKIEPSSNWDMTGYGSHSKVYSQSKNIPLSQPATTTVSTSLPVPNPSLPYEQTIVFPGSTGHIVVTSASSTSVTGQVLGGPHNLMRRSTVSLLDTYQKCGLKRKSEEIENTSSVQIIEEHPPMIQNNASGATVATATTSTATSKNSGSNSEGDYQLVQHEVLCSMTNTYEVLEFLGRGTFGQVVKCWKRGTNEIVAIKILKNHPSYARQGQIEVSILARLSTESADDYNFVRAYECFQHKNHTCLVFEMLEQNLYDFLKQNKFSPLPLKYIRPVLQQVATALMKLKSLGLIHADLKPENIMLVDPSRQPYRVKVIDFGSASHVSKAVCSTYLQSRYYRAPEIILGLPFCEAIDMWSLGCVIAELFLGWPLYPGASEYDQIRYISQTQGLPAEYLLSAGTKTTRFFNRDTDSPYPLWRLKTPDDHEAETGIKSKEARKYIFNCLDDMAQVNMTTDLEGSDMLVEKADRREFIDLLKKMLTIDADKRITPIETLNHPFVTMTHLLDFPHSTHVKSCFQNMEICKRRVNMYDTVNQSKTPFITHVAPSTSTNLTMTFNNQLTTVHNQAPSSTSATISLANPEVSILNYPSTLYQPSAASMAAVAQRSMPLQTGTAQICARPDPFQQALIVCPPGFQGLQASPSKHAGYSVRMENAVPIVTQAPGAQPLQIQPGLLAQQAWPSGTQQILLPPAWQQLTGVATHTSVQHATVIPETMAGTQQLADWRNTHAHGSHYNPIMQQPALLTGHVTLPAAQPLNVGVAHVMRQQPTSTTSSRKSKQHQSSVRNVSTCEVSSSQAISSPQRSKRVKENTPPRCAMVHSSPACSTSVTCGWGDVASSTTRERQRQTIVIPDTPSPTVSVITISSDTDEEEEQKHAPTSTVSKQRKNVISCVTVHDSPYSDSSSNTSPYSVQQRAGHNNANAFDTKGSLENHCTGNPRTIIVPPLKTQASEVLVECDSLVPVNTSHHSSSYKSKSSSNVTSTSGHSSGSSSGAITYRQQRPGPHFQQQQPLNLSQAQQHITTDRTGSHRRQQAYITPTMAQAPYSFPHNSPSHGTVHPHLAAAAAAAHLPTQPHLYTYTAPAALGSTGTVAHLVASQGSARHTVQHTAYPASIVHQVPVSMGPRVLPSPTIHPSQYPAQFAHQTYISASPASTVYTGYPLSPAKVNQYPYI
Chain of CDK8/CycC (P49336 whole entry): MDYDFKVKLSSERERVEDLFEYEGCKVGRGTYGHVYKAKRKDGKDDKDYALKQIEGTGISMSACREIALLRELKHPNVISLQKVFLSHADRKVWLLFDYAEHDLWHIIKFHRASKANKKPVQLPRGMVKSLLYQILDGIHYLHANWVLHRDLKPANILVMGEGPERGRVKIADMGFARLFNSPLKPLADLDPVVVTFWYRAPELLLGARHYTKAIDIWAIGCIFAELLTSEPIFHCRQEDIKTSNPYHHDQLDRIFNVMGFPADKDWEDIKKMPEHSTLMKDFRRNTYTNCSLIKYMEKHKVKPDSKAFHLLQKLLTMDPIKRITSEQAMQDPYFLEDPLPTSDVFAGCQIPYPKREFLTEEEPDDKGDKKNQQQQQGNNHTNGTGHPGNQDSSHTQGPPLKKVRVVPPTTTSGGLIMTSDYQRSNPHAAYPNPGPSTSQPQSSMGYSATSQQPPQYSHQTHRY
Chain of CDK8/CycC (P24863 whole entry partner): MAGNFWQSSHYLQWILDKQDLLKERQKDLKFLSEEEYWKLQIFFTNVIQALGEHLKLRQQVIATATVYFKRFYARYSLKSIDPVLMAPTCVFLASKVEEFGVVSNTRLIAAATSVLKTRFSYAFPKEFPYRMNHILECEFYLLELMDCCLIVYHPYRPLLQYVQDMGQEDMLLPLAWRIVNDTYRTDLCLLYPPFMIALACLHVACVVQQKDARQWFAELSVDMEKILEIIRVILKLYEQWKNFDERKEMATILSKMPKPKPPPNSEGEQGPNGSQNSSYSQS
Chain of CDK3/CycC (Q00526 whole entry): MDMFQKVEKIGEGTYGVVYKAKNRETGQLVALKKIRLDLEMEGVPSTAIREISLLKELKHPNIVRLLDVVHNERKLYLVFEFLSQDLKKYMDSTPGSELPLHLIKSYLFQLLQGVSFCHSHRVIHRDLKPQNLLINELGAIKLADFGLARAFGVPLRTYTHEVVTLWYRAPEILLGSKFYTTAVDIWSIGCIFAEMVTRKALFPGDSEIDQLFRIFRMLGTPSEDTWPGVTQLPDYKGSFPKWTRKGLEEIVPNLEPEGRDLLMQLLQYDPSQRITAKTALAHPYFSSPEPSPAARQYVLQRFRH
Chain of CDK3/CycC (P24863 whole entry partner): as the sequence (P24863 whole entry partner) above
Chain of CDK9/CycK (P50750 whole entry): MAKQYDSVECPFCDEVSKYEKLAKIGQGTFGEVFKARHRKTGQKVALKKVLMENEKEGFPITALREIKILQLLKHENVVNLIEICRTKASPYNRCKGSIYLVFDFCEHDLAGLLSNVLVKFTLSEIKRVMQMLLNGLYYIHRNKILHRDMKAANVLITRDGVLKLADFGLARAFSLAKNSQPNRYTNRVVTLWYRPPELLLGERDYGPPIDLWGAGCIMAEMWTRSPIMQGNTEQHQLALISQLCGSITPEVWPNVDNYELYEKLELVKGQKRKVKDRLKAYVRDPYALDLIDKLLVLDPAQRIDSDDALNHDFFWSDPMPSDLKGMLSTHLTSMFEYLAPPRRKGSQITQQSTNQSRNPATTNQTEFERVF
Chain of CDK9/CycK (O75909 whole entry partner): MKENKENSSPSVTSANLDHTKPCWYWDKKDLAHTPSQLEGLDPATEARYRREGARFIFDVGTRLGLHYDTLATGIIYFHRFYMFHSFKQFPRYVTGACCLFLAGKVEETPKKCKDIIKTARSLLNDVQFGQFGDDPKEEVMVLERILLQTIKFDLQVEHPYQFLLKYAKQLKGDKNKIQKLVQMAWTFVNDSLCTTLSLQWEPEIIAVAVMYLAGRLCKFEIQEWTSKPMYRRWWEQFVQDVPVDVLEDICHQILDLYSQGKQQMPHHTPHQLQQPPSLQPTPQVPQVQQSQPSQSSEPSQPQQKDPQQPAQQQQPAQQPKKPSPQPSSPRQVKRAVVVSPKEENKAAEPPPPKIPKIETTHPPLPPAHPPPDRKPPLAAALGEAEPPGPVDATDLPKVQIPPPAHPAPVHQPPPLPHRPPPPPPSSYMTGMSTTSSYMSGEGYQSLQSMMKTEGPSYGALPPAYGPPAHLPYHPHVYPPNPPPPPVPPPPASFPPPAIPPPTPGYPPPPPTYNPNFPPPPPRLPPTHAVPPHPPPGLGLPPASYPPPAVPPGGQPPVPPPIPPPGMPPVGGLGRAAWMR
Chain of PIM1 (P11309 whole entry, species assumed): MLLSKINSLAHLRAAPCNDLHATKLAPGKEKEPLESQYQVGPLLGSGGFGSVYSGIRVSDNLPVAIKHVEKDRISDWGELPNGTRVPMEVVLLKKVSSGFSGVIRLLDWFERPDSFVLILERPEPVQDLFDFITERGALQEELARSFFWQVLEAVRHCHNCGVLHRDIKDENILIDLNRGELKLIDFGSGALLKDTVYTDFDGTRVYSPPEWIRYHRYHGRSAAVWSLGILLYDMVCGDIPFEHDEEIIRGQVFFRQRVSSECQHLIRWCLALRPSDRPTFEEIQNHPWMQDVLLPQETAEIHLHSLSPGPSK

IC50 (CDC7/DBF4) [µM]	IC50 (CDK1/CycB1; [5]) [µM]	IC50 (CDK2/CycA2; [5]) [µM]	IC50 (CDK2/CycE1; [5]) [µM]	IC50 (CDK3/CycC) [µM]	IC50 (CDK7/CycH/MAT1) [µM]	IC50 (CDK8/CycC) [µM]	IC50 (CDK9/CycK) [µM]	IC50 (DYRK1A) [µM]	IC50 (DYRK2) [µM]	IC50 (ERK1) [µM]	IC50 (HIPK2) [µM]	IC50 (PIM1) [µM]	GI50 ([2]; Homo sapiens, U-87 MG) [µM]	Structure (SMILES)	GI50 ([1]; Homo sapiens, MCF10) [µM]	cell cycle arrest by DNA content [4]	also measured
13.5	2.05	0.222	0.277	0.17	2.03	16.8	0.012	3.65	1.26	22.1	0.187	8.14	0.16	CC(=O)c1c(C)c2cnc(Nc3ccc(N4CCNCC4)cc3)nc2n([C@@H]2CC3CCC2C3)c1=O (stereo partly drawn) [PS010, 6-acetyl-8-((2R)-bicyclo[2.2.1]heptan-2-yl)-5-methyl-2-((4-(piperazin-1-yl)phenyl)amino)pyrido[2,3-d]pyrimidin-7(8H)-one]	0.08	accumulation of cells both in G1 and G2/M phases	affinity for CDK5 [3]: presented affinity; cell death (sub-G1 accumulation) [4]: led to cell death
> 50	0.721	3.52	3.64	1.86	11.8	27.3	0.0675	11.8	9.24	0.949	5.58	> 50	2.44	CC(=O)c1c(C)c2cnc(Nc3ccc(N4CCC(CCCO)CC4)cc3)nc2n([C@@H]2CC3CCC2C3)c1=O (stereo partly drawn) [PS008, 6-acetyl-8-((2R)-bicyclo[2.2.1]heptan-2-yl)-2-((4-(4-(3-hydroxypropyl)piperidin-1-yl)phenyl)amino)-5-methylpyrido[2,3-d]pyrimidin-7(8H)-one]	0.7	induced accumulation of cells in G0/G1	additional affinity for CDK1/2 [3]: additional affinity
7.61	4.69	0.81	0.545	3.95	20	0.677	0.456	> 50	> 50	> 50	> 50	> 50	4.1	O=c1ccc2cnc(Nc3ccc(N4CCC(CCCO)CC4)c(F)c3)nc2n1[C@@H]1CC2CCC1C2 (stereo partly drawn) [PS003, 8-((2R)-bicyclo[2.2.1]heptan-2-yl)-2-((3-fluoro-4-(4-(3-hydroxypropyl)piperidin-1-yl)phenyl)amino)pyrido[2,3-d]pyrimidin-7(8H)-one]	7.5	induced G2/M arrest	
14.6	42.1	19.7	7.29	27.1	40.7	0.122	7.05	> 50	> 50	47.5	> 50	27.9	> 50	O=c1ccc2cnc(Nc3ccc(N4CCC(CCCO)CC4)cc3F)nc2n1[C@@H]1CC2CCC1C2 (stereo partly drawn) [PS002, 8-((2R)-bicyclo[2.2.1]heptan-2-yl)-2-((2-fluoro-4-(4-(3-hydroxypropyl)piperidin-1-yl)phenyl)amino)pyrido[2,3-d]pyrimidin-7(8H)-one]	34.6		

Structure (SMILES)	IC50 (CDC7/DBF4) [µM]	IC50 (CDK1/CycB1; [5]) [µM]	IC50 (CDK2/CycA2; [5]) [µM]	IC50 (CDK2/CycE1; [5]) [µM]	IC50 (CDK3/CycC) [µM]	IC50 (CDK7/CycH/MAT1) [µM]	IC50 (CDK8/CycC) [µM]	IC50 (CDK9/CycK) [µM]	IC50 (DYRK1A) [µM]	IC50 (DYRK2) [µM]	IC50 (ERK1) [µM]	IC50 (HIPK2) [µM]	IC50 (PIM1) [µM]	GI50 ([2]; Homo sapiens, U-87 MG) [µM]	GI50 ([1]; Homo sapiens, MCF10) [µM]	cell cycle arrest by DNA content [4]	also measured
O=c1ccc2cnc(Nc3ccc(N4CCC(CCCO)CC4)cc3)nc2n1C1CC2CCC1C2 (stereo not shown) [PD-0183812, reference compound]	18.8				5.21	45.4	0.256	0.174	31.9	> 50	29.6	> 50	35.9			arrested cells with a 4N DNA content	IC50 (CDK1/CycB1): 32.1 µM; IC50 (CDK2/CycA2): 0.341 µM; IC50 (CDK2/CycE1): 0.122 µM; GI50 [1]: 3.3 µM; GI50 [2]: 7.45 µM
